According to publication PMC11354745, “Discovery of Novel Amino Acids (Analogues)-Substituted Thiophene[3,2-d]pyrimidine Derivatives as Potent HIV-1 Non-Nucleoside Reverse Transcriptase Inhibitors: Design, Synthesis, and Biological Evaluation” (International Journal of Molecular Sciences, 2024):
Read-outs that look alike come from different tables or passages of the source.

Assays:
[1] = tested on: HIV-1 wild-type (WT) strain (IIIB); assay: Anti-HIV activity in MT-4 cells (MTT method), HIV-1 IIIB; type: cell-based; conditions: for EC50: Human immunodeficiency virus 1, IIIB, MT4, read-out: EC50 IIIB; for SI IIIB: selectivity index, ratio CC50/EC50, IIIB
Description: (§1) All the target compounds were first evaluated for their antiviral activity against HIV-1 wild-type (WT) strain (IIIB) and the double-mutant strain K103N+Y181C (RES056) in the MT-4 cell line, using the MTT method.
(§2) The antiviral potential and cytotoxic effects of the target compounds were assessed using the MTT assay in MT-4 cells, following established protocols. The HIV-1 (IIIB) strain, single mutant strains (L100I, K103N, Y181C, Y188L and E138K), double mutant strains (F227L + V106A and K103N + Y181C) and MT-4 cells were provided by the Rega Institute of Medicine at the University of Leuven, Belgium. These viral strains were propagated in MT-4 cells. […] The specific experimental procedures are detailed below.
(§3) Initially, concentrated solutions of the test compounds were prepared at 10-fold the final desired concentration and added to triplicate wells in 25 µL aliquots to assess their impacts on both mock and HIV-infected MT-4 cells. Using a Biomek 3000 robot, these were diluted in a 96-well flat-bottomed microplate by mixing with medium, creating a series of 5-fold steps down in concentration. Each test included control groups of untreated infected and mock-infected cells to establish baselines for comparison. […] These strains served to mimic both typical and resistant infections. Additionally, mock-infected wells received an equal volume of culture medium to assess the compounds’ impacts on uninfected cells, thereby determining cytotoxicity. MT-4 cells in the exponential growth phase were pelleted by centrifugation at 1000 rpm for 5 min, after which the supernatant was removed. The cells were resuspended to a density of 6 × 10^5 cells/mL, and 50 µL of this suspension was added to each well. Post-infection, on the fifth day, cell viability in both mock and infected conditions was measured via the MTT assay using a spectrophotometer.

[2] = tested on: HIV-1 double-mutant strain K103N+Y181C (RES056); assay: microbe, parasite or virus in culture; type: cell-based; conditions: for EC50: Human immunodeficiency virus 1, MT4, read-out: EC50 RES056; for SI RES056: selectivity index, ratio CC50/EC50, RES056
Description: as §1, §2, §3

[3] = Cytotoxicity in mock-infected MT-4 cells (MTT method); type: cell-based; conditions: human
Description: (§4) The antiviral potential and cytotoxic effects of the target compounds were assessed using the MTT assay in MT-4 cells, following established protocols. The HIV-1 (IIIB) strain, single mutant strains (L100I, K103N, Y181C, Y188L and E138K), double mutant strains (F227L + V106A and K103N + Y181C) and MT-4 cells were provided by the Rega Institute of Medicine at the University of Leuven, Belgium. These viral strains were propagated in MT-4 cells. The MT-4 cells were cultured in RPMI-1640 medium supplemented with 20 mM HEPES buffer (Life Technologies, Grand Island, NY, USA), 10% (v/v) heat-inactivated fetal calf serum (FCS), 2 mM L-glutamine, 0.1% sodium bicarbonate, and 20 μg/mL gentamicin. Cultures were maintained at 37 °C in a 5% CO2 atmosphere. The specific experimental procedures are detailed below.
(§5) Initially, concentrated solutions of the test compounds were prepared at 10-fold the final desired concentration and added to triplicate wells in 25 µL aliquots to assess their impacts on both mock and HIV-infected MT-4 cells. Using a Biomek 3000 robot, these were diluted in a 96-well flat-bottomed microplate by mixing with medium, creating a series of 5-fold steps down in concentration. Each test included control groups of untreated infected and mock-infected cells to establish baselines for comparison. We introduced HIV-1 strains, both wild-type (IIIB) and drug-resistant variants harboring mutations L100I, K103N, Y181C, Y188L, E138K and F227L + V106A and the double mutant K103N + Y181C (RES056), at concentrations of 100–300 CCID50, into their respective wells. These strains served to mimic both typical and resistant infections. Additionally, mock-infected wells received an equal volume of culture medium to assess the compounds’ impacts on uninfected cells, thereby determining cytotoxicity. MT-4 cells in the exponential growth phase were pelleted by centrifugation at 1000 rpm for 5 min, after which the supernatant was removed. The cells were resuspended to a density of 6 × 10^5 cells/mL, and 50 µL of this suspension was added to each well. Post-infection, on the fifth day, cell viability in both mock and infected conditions was measured via the MTT assay using a spectrophotometer. The CC50 was identified as the concentration of the compound that caused a 50% reduction in the viability of the mock-infected cells, indicating cytotoxicity. Conversely, the EC50 represented the concentration that provided 50% protection against viral cytopathic effects in infected cells, signifying antiviral potency.

[4] = tested on: HIV-1 L100I mutant strain; assay: Anti-HIV activity in MT-4 cells (MTT method), L100I; type: cell-based; conditions: Human immunodeficiency virus 1, MT4, read-out: EC50 L100I
Source text: (§6) All the target compounds were first evaluated for their antiviral activity against HIV-1 wild-type (WT) strain (IIIB) and the double-mutant strain K103N+Y181C (RES056) in the MT-4 cell line, using the MTT method. The potent inhibitors were selected to assess their efficacy against other strains resistant to NNRTIs, including L100I, K103N, Y181C, Y188L, E138K and the double-mutant strain F227L+V106A. The approved drugs NVP, EFV and ETR were selected as reference drugs. The biological evaluation results of the test compounds, presented as EC50 (anti-HIV potency), CC50 (cytotoxicity) and SI (selectivity index, CC50/EC50 ratio), are summarized in Table 1 and Table 2.
as §4, §5

[5] = tested on: HIV-1 K103N mutant strain; assay: Anti-HIV activity in MT-4 cells (MTT method), K103N; type: cell-based; conditions: Human immunodeficiency virus 1, MT4, read-out: EC50 K103N
Source text: as §6, §4, §5

[6] = tested on: HIV-1 Y181C mutant strain; assay: Anti-HIV activity in MT-4 cells (MTT method), Y181C; type: cell-based; conditions: Human immunodeficiency virus 1, MT4, read-out: EC50 Y181C
Source text: as §6, §4, §5

[7] = tested on: HIV-1 Y188L mutant strain; assay: Anti-HIV activity in MT-4 cells (MTT method), Y188L; type: cell-based; conditions: Human immunodeficiency virus 1, MT4, read-out: EC50 Y188L
Source text: as §6, §4, §5

[8] = tested on: HIV-1 E138K mutant strain; assay: Anti-HIV activity in MT-4 cells (MTT method), E138K; type: cell-based; conditions: Human immunodeficiency virus 1, MT4, read-out: EC50 E138K
Source text: as §6, §4, §5

[9] = tested on: HIV-1 double-mutant strain F227L+V106A; assay: Anti-HIV activity in MT-4 cells (MTT method), F227L+V106A; type: cell-based; conditions: Human immunodeficiency virus 1, MT4, read-out: EC50 F227L/V106A
Source text: as §6, §4, §5

[10] = target: T1, WT HIV-1 RT (Human immunodeficiency virus type 1 group M subtype B, UniProt P03366); assay: HIV-1 RT inhibition assay (Roche kit, ELISA); type: biochemical
T1 construct: viral nucleotides (dNTPs) and the HIV-1 RT enzyme in an incubation buffer; purchased Roche
Source text: An assay kit for HIV-1 reverse transcriptase (RT) from Roche was utilized to assess RT inhibition. The kit provided all necessary components for the RT reaction, and the enzyme-linked immunosorbent assay (ELISA) methodology for the inhibition assay was executed according to the kit’s instructions. […] Unbound dNTPs were washed away, and an anti-[…] (DIG)-POD working solution was introduced. […] Excess anti-DIG-POD was removed, and a peroxidase substrate (ABTS) solution was applied to the MTPs. […] The percentage of the inhibitory activity of the RT inhibitors was calculated by formula, as given below:
% Inhibition = [O.D. value with RT but without inhibitors − O.D. value with RT and inhibitors]/[O.D. value with RT […] − O.D. value without RT and inhibitors].

[11] = reduces viability of mock-infected MT-4 cell cultures by 50%, MTT method, read-out: CC50

Row | Structure (SMILES) | EC50 [1] | SI IIIB [1] | EC50 [2] | CC50 at 5 days ([3]; CC50) | melting point | SI RES056 [2] | EC50 [4] | EC50 [5] | EC50 [6] | EC50 [7] | EC50 [8] | EC50 [9] | IC50 [10] | CC50 at 5 days [3, 11]
1 | Cc1cc(C#N)cc(C)c1Oc1nc(Nc2ccc(NC(=O)C(Cc3c[nH]c4ccccc34)NC(=O)OC(C)(C)C)cc2)nc2ccsc12 (stereo not shown) [5a] | 940 ± 278 nM | >197 | > 186000 nM | > 186000 nM | 205 to 208 °C | – | – | – | – | – | – | – | – | –
2 | Cc1cc(C#N)cc(C)c1Oc1nc(Nc2ccc(NC(=O)C(N)Cc3c[nH]c4ccccc34)cc2)nc2ccsc12 (stereo not shown) [5b] | 89 ± 43 nM | 250 | > 22400 nM | 22400 ± 560 nM | 224 to 227 °C | <1 | – | – | – | – | – | – | – | –
3 | Cc1cc(C#N)cc(C)c1Oc1nc(Nc2ccc(NC(=O)[C@H](Cc3cn(C(=O)OC(C)(C)C)cn3)NC(=O)OC(C)(C)C)cc2)nc2ccsc12 [5c] | 672 ± 648 nM | 29 | > 19600 nM | 19600 ± 720 nM | 236 to 238 °C | <1 | – | – | – | – | – | – | – | –
4 | Cc1cc(C#N)cc(C)c1Oc1nc(Nc2ccc(NC(=O)[C@H](Cc3ccccc3)NC(=O)OC(C)(C)C)cc2)nc2ccsc12 [5d] | 771 ± 236 nM | >256 | > 197000 nM | > 197000 nM | 220 to 222 °C | – | – | – | – | – | – | – | – | –
5 | Cc1cc(C#N)cc(C)c1Oc1nc(Nc2ccc(NC(=O)[C@@H](N)Cc3c[nH]cn3)cc2)nc2ccsc12 [5e] | 52 ± 22 nM | 484 | ≥ 4880 nM | 25100 ± 2300 nM | 158 to 160 °C | ≤5 | 902 ± 311 nM | 35 ± 9 nM | 2580 ± 477 nM | 2260 ± 733 nM | 260 ± 75 nM | 1460 ± 979 nM | 927 ± 64 nM | –
6 | Cc1cc(C#N)cc(C)c1Oc1nc(Nc2ccc(NC(=O)[C@@H](NC(=O)OC(C)(C)C)C(C)C)cc2)nc2ccsc12 [5f] | 848 ± 247 nM | >251 | > 213000 nM | > 213000 nM | 158 to 160 °C | – | – | – | – | – | – | – | – | –
7 | Cc1cc(C#N)cc(C)c1Oc1nc(Nc2ccc(NC(=O)C3CCCN3C(=O)OC(C)(C)C)cc2)nc2ccsc12 (stereo not shown) [5g] | 924 ± 242 nM | 206 | > 191000 nM | 191000 nM | 236 to 238 °C | <1 | – | – | – | – | – | – | – | –
8 | CNCC(=O)Nc1ccc(Nc2nc(Oc3c(C)cc(C#N)cc3C)c3sccc3n2)cc1 [5j] | 242 ± 65 nM | 72 | > 17300 nM | 17300 ± 11500 nM | 171 to 173 °C | <1 | – | – | – | – | – | – | – | –
9 | Cc1cc(C#N)cc(C)c1Oc1nc(Nc2ccc(NC(=O)C3CC(O)CN3)cc2)nc2ccsc12 (stereo not shown) [5l] | 59 ± 10 nM | 451 | > 26800 nM | 26800 ± 1070 nM | – | <1 | 1480 ± 545 nM | 72 ± 18 nM | 2600 ± 225 nM | 2740 ± 103 nM | 314 ± 95 nM | 2190 ± 45 nM | 1710 ± 298 nM | –
10 | Cc1cc(C#N)cc(C)c1Oc1nc(Nc2ccc(NC(=O)[C@@H](CC(C)C)NC(=O)OC(C)(C)C)cc2)nc2ccsc12 [5m] | 9860 ± 1180 nM | >21 | > 208000 nM | > 208000 nM | – | – | – | – | – | – | – | – | – | –
11 | Cc1cc(C#N)cc(C)c1Oc1nc(Nc2ccc(NC(=O)[C@H](N)CC(C)C)cc2)nc2ccsc12 [5n] | 62 ± 19 nM | 391 | 5500 ± 1360 nM | 24300 ± 4280 nM | – | 4 | 2120 ± 455 nM | 131 ± 4 nM | 2160 ± 57 nM | 2110 ± 288 nM | 231 ± 154 nM | 2030 ± 1180 nM | 2390 ± 86 nM | –
12 | Cc1cc(C#N)cc(C)c1Oc1nc(Nc2ccc(NC(=O)CN(C)C(=O)OC(C)(C)C)cc2)nc2ccsc12 [5o] | 863 ± 253 nM | 7 | – | 5840 ± 1180 nM | – | – | – | – | – | – | – | – | – | –
13 | Cc1cc(C#N)cc(C)c1Oc1nc(Nc2ccc(NC(=O)C3CC(O)CN3C(=O)OC(C)(C)C)cc2)nc2ccsc12 (stereo not shown) [5p] | 2580 ± 520 nM | 9 | – | 22500 ± 391 nM | – | – | – | – | – | – | – | – | – | –
14 | O=C1Nc2ccc(Cl)cc2[C@@](C#CC2CC2)(C(F)(F)F)O1 [EFV, efavirenz, reference compound] | 6 ± 2 nM | – | 698 ± 449 nM | – | – | – | 54 ± 36 nM | 132 ± 50 nM | 8 ± 1 nM | 280 ± 91 nM | 10 ± 5 nM | 329 ± 228 nM | – | > 6350 nM
15 | Cc1cc(C#N)cc(C)c1Oc1nc(Nc2ccc(C#N)cc2)nc(N)c1Br [ETR, etravirine, reference compound] | 3 ± 1 nM | – | 40 ± 11 nM | > 4610 nM | – | – | – | 3 ± 1 nM | 15 ± 5 nM | 21 ± 8 nM | 9 ± 4 nM | 9 ± 4 nM | – | –
16 | Cc1ccnc2c1NC(=O)c1cccnc1N2C1CC1 [NVP, nevirapine, reference compound] | 236 ± 114 nM | – | > 15000 nM | – | – | – | 1740 ± 879 nM | 4090 ± 3710 nM | 8040 ± 1680 nM | 9870 ± 2470 nM | 181 ± 67 nM | 7500 ± 2590 nM | – | > 15000 nM
